Reference: US5178789A, “Liquid detergent with stabilized enzyme” (Genencor International, Inc., priority 1991, dated 1993)
Where “and” joins values, the source holds several entries; their conditions need not be identical. Equal values may be shown once.

Assays:
Format in all cases: biochemical
subtilisin [1] = experiment: Inhibition assay: subtilisin incubated with inhibitor, rate of substrate hydrolysis monitored; details: about 2 mg/ml TOM; summary of Tables I and II
Protocol: The inhibitor solution is made up in a 20 mM Mops, pH 7 buffer and added to an eppendorf. 0.8 mM subtilisin is added and the mixture is allowed to incubate at room temperature for 15 minutes. After 15 minutes, 99 μl of the mixture is added to a cuvette containing 10 μl of 100 mg/ml SAAApna. The rate of hydrolysis is monitored at […]. A subtilisin control containing no inhibitor is carried out.

subtilisin [2] = experiment: Dilution assay: inhibition mixture diluted, final 1:1000, recovered subtilisin activity; details: final dilution 1:1000, 0.1M Tris pH 8.6
Protocol: The above inhibition assay is diluted 1:10 into the standard subtilisin assay buffer (0.1M Tris, pH 8.6 with 0.005% Tween). 10 μl of this diluted material is then added to a cuvette containing 10 μl of 100 mg/ml SAAPFpna and 980 μl subtilisin Assay Buffer. The rate of reaction is followed at 410 nm. The final dilution is 1:1000.

subtilisin [3] = experiment: Inhibition of subtilisin by TOM in the presence of Tide Liquid, diluted 1/500; details: for % Activity Recovered Upon Dilution / Subtilisin activity, Tide 2 mg/ml TOM: 2 mg/ml TOM in Tide Liquid, diluted 1/500
Protocol: 2 mg/ml of TOM was added to Tide™ Liquid (commercially available from The Procter & Gamble Co). The solution was diluted 1/500 into the standard subtilisin 8.6 Tris buffer. 10 μl aliquots were taken at various times to monitor subtilisin activity. Similar dilutions and assay procedures were carried out with Tide™ Liquid. 100 mg/ml SAAPFpna substrate was used.

turkey ovomucoid [TOM] was tested, and the “active enzyme bound by inhibitor” value (subtilisin [1]) was “at least 90%”, the “Dilution Assay % Recovered Activity” value (subtilisin [2]; 0.4 mg/ml TOM) was 32% and the “Dilution Assay % Recovered Activity” value (subtilisin [2]; 2 mg/ml TOM) was 45%. For the same substance, the “enzyme activity recovered immediately upon appropriate dilution” value (subtilisin [3]; about 2 mg/ml TOM, summary of Tables I and II) was > 25% and 46%, the “% Activity Recovered Upon Dilution” value (subtilisin [3]; time 0 min) was 46% and the “Subtilisin activity, Tide 2 mg/ml TOM” value (subtilisin [3]; time 0 min) was 1.04. For the same substance, the “% Activity Recovered Upon Dilution” value (subtilisin [3]; time 15 min) was 38%, the “Subtilisin activity, Tide 2 mg/ml TOM” value (subtilisin [3]; time 15 min) was 0.97 and the “% Activity Recovered Upon Dilution” value (subtilisin [3]; time 30 min) was 33%. The “Subtilisin activity, Tide 2 mg/ml TOM” value (subtilisin [3]; time 30 min) was 0.965.
